Assay results as given in publication PMC8404199, “Structure–Activity Relationships of Triple-Action Platinum(IV) Prodrugs with Albumin-Binding Properties and Immunomodulating Ligands” (Journal of Medicinal Chemistry, 2021).

What was measured:
[1] = UHPLC reduction kinetics with dithiothreitol; type: physicochemical; details: 1 mM complex, 10 mM DTT, 1% DMF, 500 mM phosphate buffer pH 7.4, 20 °C
Protocol: Figure S 3: Reduction kinetics of reference compounds with AA at 20°C , measured by UHPLC and UV absorption at 220 nm. A: Comparison of OAc/IPAEs with amino -group containing SucCa/IdoEs; B:
Reductive stability of reference compounds with no 1MDT -like ligand. AUC-values were normalized to t = 0. Experimental conditions: 1 mM complex, 10 mM AA in 1% DMF and 500 mM phosphate buffer […]
conditions: 1 mM complex, 10 mM DTT in 1% DMF and 500 mM phosphate buffer (pH 7.4). […]

[2] = system: phosphorylation of histone H2A.X at position Ser139; assay: pH2AX signal detection in HCT116 cells; type: cell-based, human; details: HCT116, 50 µM, 24 h, 5-fold excess AA
Protocol: HCT116 cells were seeded on polytetrafluoroethylene-printed spot slides (E63424-06, Science Services GmbH, Munich, Germany) at a density of 4000 cells/spot. On the next day, cells were exposed to the compounds for 24 h, at 50 μM and fixed in a 4% formaldehyde solution in phosphate-buffered saline (PBS) with a pH adjusted to 7.4 (158127, Merck, Darmstadt, Germany) for 15 min at RT. Spots were washed thrice with PBS each for 5 min, and samples were then incubated in a blocking buffer [PBS, 5% albumin (Carl Roth, Karlsruhe, Germany), 0.3% Triton X-100 (T8787, Merck, Darmstadt, Germany)] for 1 h at RT. […] Next, samples were incubated with rhodamine-labeled wheat germ agglutinin (RL-1022, Vector Laboratories, California, USA) at a concentration for 5 μg/mL for 15 min at RT, and spots were washed twice in PBS, embedded in vectashield mounting medium with DAPI (VECH-1200, Szabo-Scandic, Vienna, Austria), and analyzed using a LSM700 confocal microscope (Zeiss Axio Observer.Z1, inverse, 63× plan-apochromat NA 1.4 Oil DIC objective). […] Images were analyzed using ImageJ software. […] Then, Alexa Fluor 488 signal (integrated density) was measured and normalized to nuclear area.

[3] = system: HCT116 cells; assay: Cell cycle analysis in HCT116 cells; type: cell-based, human; details: HCT116, 50 µM, 24 h, 5-fold excess AA
Protocol: The cells were seeded at 600,000 cells/well in six-well plates and allowed to recover for 24 h. On the next day, cells were exposed to the compounds for 24 h, then trypsinized, and collected. Subsequently, cells were washed with PBS and centrifuged (400g, 5 min), and the cell pellet was resuspended in 100 μL of 0.9% NaCl solution. The cell suspension was then added dropwise to 1.8 mL of ice-cold 80% ethanol and incubated for 48 h at −20 °C. The fixated cells were centrifuged (6200g, 2 min), and the cell pellet was diluted in 0.5 mL of PBS with 0.1 mg/mL RNAse A (R5503, Merck, Darmstadt, Germany), which was previously heat-activated (10 min at 96 °C), and samples were incubated for 30 min at 37 °C to remove RNA content. Next, to stain DNA, propidium iodide (81845, Merck, Darmstadt, Germany) at a concentration of 5 μg/mL was added, samples were incubated for 30 min on ice and subsequently measured by flow cytometry.

[4] = system: Treg differentiation; assay: Treg differentiation assay in human PBMC/SKOV3 co-culture; type: cell-based; details: 50 μM, 5 days, PBMC from three donors co-cultured with SKOV3
Protocol: PBMCs were thawed and slowly dropped into warm medium at a rate of 1 drop/5 s. PBMCs were then centrifuged (10 min, 400g) and washed with warm AIM V medium (12055091, Thermo Fisher Scientific, Massachusetts, USA). PBMCs were co-cultured with SKOV3 at a ratio of 2:1 (PBMC/SKOV3) in 12-well CytoOne plates (CC7682-7512, Starlab, Hamburg, Germany). In the presence of IL-2 (SRP3085, Merck, Darmstadt, Germany) at a concentration of 80 ng per 10^6, PBMCs were added. To induce Treg differentiation, OKT3 monoclonal CD3 antibody (317302, BioLegend, California, USA) and TGF-β1 CHO (AF-100-21C-10 μg, Eubio, Vienna, Austria) were added at concentrations of 4 μg and 10 ng per 10^6 PBMC, respectively. […] After 3 days, 250 μL of fresh AIM V medium was added, and cells were incubated for another two days. On the day of measurement, supernatant, containing PBMC, was collected.
Cells were washed with PBS and stained using the Aqua Zombie Fixable Viability Kit (423101, BioLegend, California, USA), according to the manufacturer’s instructions. Cells were then stained with fluorescent dye-labeled antibodies, according to the manufacturer’s instructions (Table S7). […] The cleaned up data were analyzed using the gating strategy, as shown in Figure S15 for murine tissue and Figure S16 for human co-culture experiment.

SMILES | reduction in the presence of dithiothreitol (in words) [1] | pH2A.X signals upon reduction by AA [2] | fraction of cells in G2/M phase upon reduction by AA [3] | Treg differentiation (frequency of Treg in CD4+ T cells) [4]
Cn1cc(CC([NH3+])C(=O)[O][Pt]23([O]C(=O)NCCCCCN4C(=O)CCC4=O)([NH]C4CCCCC4[NH]2)[O]C(=O)C(=O)[O]3)c2ccccc21.O=C([O-])C(F)(F)F [SucCa/IdoEs, (OC-6-34)-[(R)-2-Ammonio-3-(1-methyl-1H-indol-3-yl)propanoato][(1R,2R)-1,2-cyclohexanediamino][5-(2,5-dioxo-2,5-dihydro-1H-pyrrolidin-1-yl)pentylcarbamato]oxalatoplatinum(IV) Trifluoroacetate] | readily reduced | increased pH2A.X signals | increased fraction of cells in the G2/M phase | –
Cn1cc(C[C@@H](NC(=O)[O][Pt]2([O]C(=O)CCCCCN3C(=O)CCC3=O)[O]C(=O)C(=O)[O]2)C(=O)O)c2ccccc21.N[C@@H]1CCCC[C@H]1N [SucEs/IdoCa] | – | – | – | significantly reduced Treg differentiation
Cn1cc(C[C@@H]([NH3+])C(=O)[O][Pt]2([O]C(=O)CCCCCN3C(=O)CCC3=O)[O]C(=O)C(=O)[O]2)c2ccccc21.N[C@@H]1CCCC[C@H]1N.O=C([O-])C(F)(F)F [SucEs/IdoEs, (OC-6-44)-[(R)-2-Ammonio-3-(1-methyl-1H-indol-3-yl)propanoato][(1R,2R)-1,2-cyclohexanediamino][6-(2,5-dioxopyrrolidin-1-yl)hexanoato]oxalatoplatinum(IV) Trifluoroacetate] | – | increased pH2A.X signals | increased fraction of cells in the G2/M phase | –
